Key:
D3 = biological target: T1, D3 (Homo sapiens, UniProt P35462); assay: Binding at cloned human dopamine D3 receptor
T1 construct: expressed in transfected cells; host or cells: COS-7

α1d = biological target: T2, α1d (Homo sapiens, UniProt P25100); assay: Binding at cloned human α1d adrenergic receptor
T2 sequence (P25100 1-572): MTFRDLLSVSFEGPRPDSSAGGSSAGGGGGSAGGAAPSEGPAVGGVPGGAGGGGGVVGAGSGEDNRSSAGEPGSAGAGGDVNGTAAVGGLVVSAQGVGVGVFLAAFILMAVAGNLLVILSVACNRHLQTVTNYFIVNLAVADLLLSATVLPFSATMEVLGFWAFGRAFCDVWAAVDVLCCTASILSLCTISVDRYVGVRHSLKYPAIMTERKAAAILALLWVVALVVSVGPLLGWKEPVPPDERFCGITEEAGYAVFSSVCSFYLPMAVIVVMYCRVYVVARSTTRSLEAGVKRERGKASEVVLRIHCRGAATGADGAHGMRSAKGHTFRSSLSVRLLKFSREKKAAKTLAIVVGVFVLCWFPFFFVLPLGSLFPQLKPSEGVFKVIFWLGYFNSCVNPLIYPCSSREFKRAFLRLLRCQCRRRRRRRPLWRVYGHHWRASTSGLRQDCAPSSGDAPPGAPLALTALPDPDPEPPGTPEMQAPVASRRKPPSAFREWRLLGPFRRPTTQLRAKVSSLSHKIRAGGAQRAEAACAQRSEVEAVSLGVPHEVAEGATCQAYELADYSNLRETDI

human Y4 receptor = biological target: T3, human Y4 receptor (Homo sapiens, UniProt P50391); assay: ^125I-PYY binding to membranes, cloned human Y4 receptor; settings: read-out: Binding Affinity Ki vs. ^125I-PYY, Human Receptor Y4; Table 14; stably transfected LM(tk-) cells
T3 construct: expressed in transfected cells; host or cells: COS-7 (transient)

5HT1Dα = 5HT1Dα (Homo sapiens, UniProt P28221); assay: Binding at cloned human 5HT1Dα receptor
Protocol: (§1) The cell line for the 5HT1Dα receptor, designated as Ltk-8-30-84, was deposited on Apr. […] The cell for the 5HT1Dβ receptor, designated as Ltk-11, was deposited on Apr. […] Membrane preparations comprising these receptors were prepared as described below, and suspended in 50 mM Tris-HCl buffer (pH 7.4 at 37° C.) containing 10 mM MgCl2, 0.2 mM EDTA, 10 μM pargyline, and 0.1% ascorbate. The binding of compounds was determined in competition binding assays by incubation for 30 minutes at 37° C. in the presence of 5 nM [^3H]serotonin. Nonspecific binding was determined in the presence of 10 μM serotonin.

α1a = biological target: T4, α1a (Homo sapiens, UniProt P35348); assay: Binding at cloned human α1a adrenergic receptor
T4 sequence (P35348 1-466): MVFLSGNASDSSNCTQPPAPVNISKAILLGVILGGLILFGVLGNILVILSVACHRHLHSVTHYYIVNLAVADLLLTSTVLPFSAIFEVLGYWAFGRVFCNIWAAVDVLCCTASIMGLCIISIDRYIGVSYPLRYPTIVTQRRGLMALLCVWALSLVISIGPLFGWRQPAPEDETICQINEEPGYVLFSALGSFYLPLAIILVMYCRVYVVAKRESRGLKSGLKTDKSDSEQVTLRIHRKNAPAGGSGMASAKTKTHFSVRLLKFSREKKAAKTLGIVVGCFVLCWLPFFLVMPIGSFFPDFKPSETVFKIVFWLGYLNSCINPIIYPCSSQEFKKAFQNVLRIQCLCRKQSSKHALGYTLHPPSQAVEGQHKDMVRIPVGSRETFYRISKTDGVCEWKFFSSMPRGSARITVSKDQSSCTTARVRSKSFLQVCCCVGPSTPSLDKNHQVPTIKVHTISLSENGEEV

5HT1a = 5HT1a (Homo sapiens, UniProt P08908); assay: Binding at cloned human 5HT1a receptor
human Y5 receptor = biological target: T5, human Y5 receptor (Homo sapiens, UniProt Q15761); assay: Radioimmunoassay of cAMP, cells stably expressing human Y5 receptor; assay type: cell-based; design: Ki Values, Human Y5; apparent Kd; pKd; The isolated clone (CG-19) turned out to contain a full length cDNA; The longest open reading frame encodes a 455 amino acid protein; settings: block of NPY-induced inhibition of cAMP accumulation, forskolin-stimulated LM(tk-) cells, human Y5
T5 sequence (Q15761 1-445): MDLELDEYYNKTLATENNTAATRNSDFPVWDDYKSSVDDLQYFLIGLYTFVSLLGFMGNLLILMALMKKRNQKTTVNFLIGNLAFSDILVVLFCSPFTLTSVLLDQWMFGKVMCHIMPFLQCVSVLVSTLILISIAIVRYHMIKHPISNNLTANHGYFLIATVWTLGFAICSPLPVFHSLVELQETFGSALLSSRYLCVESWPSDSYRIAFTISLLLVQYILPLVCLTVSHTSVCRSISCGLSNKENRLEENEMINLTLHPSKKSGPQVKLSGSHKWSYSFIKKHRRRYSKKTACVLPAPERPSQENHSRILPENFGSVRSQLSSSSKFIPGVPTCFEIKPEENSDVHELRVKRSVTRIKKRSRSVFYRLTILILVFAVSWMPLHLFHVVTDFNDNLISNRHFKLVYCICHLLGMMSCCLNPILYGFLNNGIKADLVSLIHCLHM
Protocol: LM(tk-) cells stably transfected with the human Y5 receptor were routinely converted from an adherent monolayer to a viable suspension. […] The cell suspension was maintained in a shaking incubator at 37° C., 5% CO2 for 24 hours. […] Alternatively, cells may be returned to adherent cell culture in complete DMEM by distribution into 96-well microtiter plates coated with poly-D-lysine (0.01 mg/ml) followed by incubation at 37° C., 5% CO2 for 24 hours.
The maximum inhibition of cAMP accumulation (Emax) and the concentration producing a half-maximal effect (EC50) were determined by nonlinear regression analysis according to a 4 parameter logistic equation.
The ability of the compounds to antagonize the Y-type receptors is reported as the Kb. […] The results shown are representative of at least three independent experiments.

α2a = biological target: T6, α2a (Homo sapiens, UniProt P08913); assay: Binding at cloned human α2a adrenergic receptor
T6 sequence (P08913 1-465): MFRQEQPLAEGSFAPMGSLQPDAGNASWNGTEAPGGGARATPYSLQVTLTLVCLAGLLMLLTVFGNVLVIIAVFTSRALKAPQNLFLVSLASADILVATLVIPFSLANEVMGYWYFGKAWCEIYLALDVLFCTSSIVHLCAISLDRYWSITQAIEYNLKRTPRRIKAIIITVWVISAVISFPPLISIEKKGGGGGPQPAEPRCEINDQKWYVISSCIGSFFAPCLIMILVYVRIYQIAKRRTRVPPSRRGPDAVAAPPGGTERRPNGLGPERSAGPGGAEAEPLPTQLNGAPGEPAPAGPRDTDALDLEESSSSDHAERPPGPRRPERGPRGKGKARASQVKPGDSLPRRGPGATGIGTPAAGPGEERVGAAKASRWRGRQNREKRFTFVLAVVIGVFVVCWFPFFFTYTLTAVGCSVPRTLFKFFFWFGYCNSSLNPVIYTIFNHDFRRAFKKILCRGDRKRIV

5HT1Dβ = biological target: T7, 5HT1Dβ (Homo sapiens, UniProt P28222); assay: Binding at cloned human 5HT1Dβ receptor
T7 construct: expressed in transfected cells; host or cells: LM(tk-), line Ltk-11 (ATCC CRL 10422)
T7 sequence (P28222 whole entry): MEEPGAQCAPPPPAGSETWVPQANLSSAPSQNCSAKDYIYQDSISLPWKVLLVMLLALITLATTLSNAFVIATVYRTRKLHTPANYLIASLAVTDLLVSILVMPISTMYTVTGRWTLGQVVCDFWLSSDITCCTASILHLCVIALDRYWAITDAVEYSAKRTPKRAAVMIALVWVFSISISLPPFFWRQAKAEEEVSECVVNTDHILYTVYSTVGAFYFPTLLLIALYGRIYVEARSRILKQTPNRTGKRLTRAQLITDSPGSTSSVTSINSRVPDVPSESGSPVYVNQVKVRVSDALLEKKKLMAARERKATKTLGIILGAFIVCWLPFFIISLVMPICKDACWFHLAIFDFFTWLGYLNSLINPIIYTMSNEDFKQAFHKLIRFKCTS
Protocol: as §1

5HT1Dα, sequence (P28221 whole entry): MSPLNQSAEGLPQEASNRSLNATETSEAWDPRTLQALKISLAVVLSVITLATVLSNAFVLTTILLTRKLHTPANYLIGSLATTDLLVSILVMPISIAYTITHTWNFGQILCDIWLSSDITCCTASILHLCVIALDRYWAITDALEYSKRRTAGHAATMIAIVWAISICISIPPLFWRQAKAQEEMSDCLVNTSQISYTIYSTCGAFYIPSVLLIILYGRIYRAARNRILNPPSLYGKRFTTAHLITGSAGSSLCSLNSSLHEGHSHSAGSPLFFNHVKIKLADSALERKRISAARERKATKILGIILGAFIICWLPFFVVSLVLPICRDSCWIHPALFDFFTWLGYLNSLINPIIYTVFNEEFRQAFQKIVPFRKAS
T3 sequence (P50391 whole entry): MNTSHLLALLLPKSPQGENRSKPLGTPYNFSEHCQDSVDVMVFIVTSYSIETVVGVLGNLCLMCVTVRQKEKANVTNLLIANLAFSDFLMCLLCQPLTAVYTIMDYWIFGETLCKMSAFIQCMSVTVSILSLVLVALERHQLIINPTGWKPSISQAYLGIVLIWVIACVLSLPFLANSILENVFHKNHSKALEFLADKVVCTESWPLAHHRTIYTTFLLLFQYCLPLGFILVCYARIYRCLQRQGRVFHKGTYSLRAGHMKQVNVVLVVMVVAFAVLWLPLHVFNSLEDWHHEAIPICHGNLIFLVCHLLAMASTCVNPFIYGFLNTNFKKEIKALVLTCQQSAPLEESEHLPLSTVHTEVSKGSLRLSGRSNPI
5HT1a, sequence (P08908 whole entry): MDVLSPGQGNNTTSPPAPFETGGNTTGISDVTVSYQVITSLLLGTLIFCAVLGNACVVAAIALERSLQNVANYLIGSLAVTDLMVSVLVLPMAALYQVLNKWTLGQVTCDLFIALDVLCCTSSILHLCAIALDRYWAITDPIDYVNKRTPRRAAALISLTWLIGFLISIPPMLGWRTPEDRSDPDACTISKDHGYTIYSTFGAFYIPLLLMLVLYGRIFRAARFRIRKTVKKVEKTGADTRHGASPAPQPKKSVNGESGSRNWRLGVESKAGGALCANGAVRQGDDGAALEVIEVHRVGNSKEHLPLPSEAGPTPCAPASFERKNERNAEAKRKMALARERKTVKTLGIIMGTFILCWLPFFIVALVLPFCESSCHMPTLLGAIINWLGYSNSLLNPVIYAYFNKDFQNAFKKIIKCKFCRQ
T1 sequence (P35462 whole entry): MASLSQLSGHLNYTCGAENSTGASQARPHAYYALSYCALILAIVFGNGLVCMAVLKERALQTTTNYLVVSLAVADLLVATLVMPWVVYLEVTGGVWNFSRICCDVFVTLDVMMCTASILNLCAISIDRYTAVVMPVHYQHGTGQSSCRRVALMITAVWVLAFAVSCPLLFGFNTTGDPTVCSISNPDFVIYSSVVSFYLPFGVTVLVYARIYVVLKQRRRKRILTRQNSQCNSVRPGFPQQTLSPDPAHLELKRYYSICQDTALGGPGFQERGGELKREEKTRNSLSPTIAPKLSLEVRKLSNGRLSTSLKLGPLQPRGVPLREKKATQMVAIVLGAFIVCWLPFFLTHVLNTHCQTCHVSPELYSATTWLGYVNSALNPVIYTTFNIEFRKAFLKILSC

| Compound | pKi D3 (D3) | pKi α1d (α1d) | Ki (human Y4 receptor) [µM] | pKi 5HT1Dα (5HT1Dα) | pKi α1a (α1a) | pKi 5HT1a (5HT1a) | Kb (human Y5 receptor) [µM] | pKi α2a (α2a) | pKi 5HT1Dβ (5HT1Dβ) |
| --- | --- | --- | --- | --- | --- | --- | --- | --- | --- |
| Cl.O=S(=O)(NC[C@H]1CC[C@H](CNCC2CCc3ccccc3C2)CC1)c1cccc2ccccc12 (mixture of isomers) [Compound 19] | 6.69 | 6.90 | 11.7 | 6.04 | 7.47 | 5.54 | 0.023 | 6.74 | – |
| Cl.O=[N+]([O-])c1ccccc1S(=O)(=O)NC[C@H]1CC[C@H](CNCC2CCc3ccccc3C2)CC1 (mixture of isomers) [Compound 20] | 6.35 | 7.01 | 20.4 | 5.94 | 7.72 | – | 0.026 | 7.31 | 5.37 |
| Cl.Cl.Nc1ccccc1S(=O)(=O)NC[C@H]1CC[C@H](CNCC2CCc3ccccc3C2)CC1 (mixture of isomers) [Compound 22] | – | 6.80 | 27.5 | 5.98 | 7.34 | 6.56 | 0.003 | 7.05 | 5.41 |

Reference: patent US6713265B1 (Synaptic Pharmaceutical Corporation, priority 1999, dated 2004)
